This note sets out measurements from ChEMBL document CHEMBL4725437, “P450s under Restriction (PURE) Screen Using HepaRG and Primary Human Hepatocytes for Discovery of Novel HBV Antivirals” (ACS Med Chem Lett, 2020).

The source made the active and inactive calls. The rule behind the calls is not given here.

Data set [1] addresses T1, CYP2C9 (Homo sapiens, UniProt P11712). In words: Inhibition of CYP2C9 in HBV-infected human HepaRG cells at 10 mM using luciferin-H as substrate treated for 1 hr on day 5 post-infection followed by removal of media and supplemented with fresh media and further incubated for 3 days by P450-Glo chemiluminescent assay relative to control. The data set is classed as ADME, tissue-based. Conditions: probe luciferin-H.

Data set [2] deals with T2, CYP1A2 (Homo sapiens, UniProt P05177).
T2 sequence (P05177 whole entry): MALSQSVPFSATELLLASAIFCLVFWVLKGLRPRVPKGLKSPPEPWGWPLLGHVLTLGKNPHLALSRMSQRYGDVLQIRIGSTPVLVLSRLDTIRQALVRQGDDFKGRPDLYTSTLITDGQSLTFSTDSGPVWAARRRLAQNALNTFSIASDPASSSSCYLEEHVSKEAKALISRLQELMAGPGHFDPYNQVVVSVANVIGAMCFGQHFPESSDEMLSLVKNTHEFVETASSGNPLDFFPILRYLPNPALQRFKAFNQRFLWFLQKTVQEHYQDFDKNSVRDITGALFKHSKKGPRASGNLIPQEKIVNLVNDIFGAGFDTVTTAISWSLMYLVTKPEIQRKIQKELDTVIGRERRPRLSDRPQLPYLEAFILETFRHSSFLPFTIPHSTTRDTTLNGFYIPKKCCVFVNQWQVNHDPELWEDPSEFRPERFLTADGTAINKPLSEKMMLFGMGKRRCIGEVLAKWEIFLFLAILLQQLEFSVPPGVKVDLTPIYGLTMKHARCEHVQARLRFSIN
In words: Inhibition of CYP1A2 in HBV-infected human HepaRG cells at 10 mM using luciferin-1A2 as substrate treated for 1 hr on day 5 post-infection followed by removal of media and supplemented with fresh media and further incubated for 3 days by P450-Glo chemiluminescent assay relative to control. Conditions: probe luciferin-1A2. It counts as ADME, tissue-based.

The target in data set [3] is T3, CYP3A4 (Homo sapiens, UniProt P08684). Briefly: Inhibition of CYP3A4 in HBV-infected human HepaRG cells at 10 mM using luciferin-IPA as substrate treated for 1 hr on day 5 post-infection followed by removal of media and supplemented with fresh media and further incubated for 3 days by P450-Glo chemiluminescent assay relative to control. The data set is classed as ADME, tissue-based. To be noted: probe luciferin-IPA.

Data set [4] has as its target T3, CYP3A4. In words: Inhibition of CYP3A4 in HBV-infected human HepaRG cells at 10 mM using luciferin-IPA as substrate treated for 1 hr on day 5 post-infection followed by removal of media and supplemented with fresh media and further incubated for 3 days in presence of 50 uM SKF-525A by P450-Glo chemiluminescent assay relative to control. The data set is classed as ADME, tissue-based. To be noted: probe luciferin-IPA, with SKF-525A 50 uM.

The subject of another data set is Hepatocyte. Briefly: Cytotoxicity against human primary hepatocytes infected with HBV assessed as reduction in cell viability at 10 mM treated for 1 hr on day 5 post-infection followed by removal of media and supplemented with fresh media and further incubated for 3 days then followed by treatment for 1 hr on day 8 post-infection followed by removal of media and supplemented with fresh media and further incubated for 3 days in presence of 25 uM SKF-525A and measured on day 11 post-infection by Celltiter-Glo assay. It counts as cell-based. Conditions: 10000 µM. (ATP-based viability assays read luminescence as a measure of living cells.)

In data set [5] the test system is Hepatitis B virus. In words: Antiviral activity against Hepatitis B virus infected in human HepaRG cells assessed as reduction in HbsAg secretion level at 10 mM treated for 1 hr on day 5 post-infection followed by removal of media and supplemented with fresh media and further incubated for 3 B37days then followed by treatment for 1 hr on day 8 post-infection followed by removal of media and supplemented with fresh media and further incubated for 3 days in presence of 50 uM SKF-525Aand measured on day 11 post-infection by chemiluminescence immunostaining assay. The data set is classed as functional, organism-based.

The next data set deals with HepaRG. Briefly: Cytotoxicity against human HepaRG cells infected with HBV assessed as reduction in cell viability at 10 mM treated for 1 hr on day 5 post-infection followed by removal of media and supplemented with fresh media and further incubated for 3 days then followed by treatment for 1 hr on day 8 post-infection followed by removal of media and supplemented with fresh media and further incubated for 3 days in presence of 50 uM SKF-525A and measured on day 11 post-infection by Celltiter-Glo assay. To be noted: 10000 µM. The data set is classed as cell-based.

Data set [6] addresses T2, CYP1A2. In words: Inhibition of CYP1A2 in HBV-infected human HepaRG cells at 10 mM using luciferin-1A2 as substrate treated for 1 hr on day 5 post-infection followed by removal of media and supplemented with fresh media and further incubated for 3 days in presence of 50 uM SKF-525A by P450-Glo chemiluminescent assay relative to control. The data set is classed as ADME, tissue-based. Conditions: probe luciferin-1A2, with SKF-525A 50 uM.

The target in a further data set is Cytochrome P450 3A4 (Homo sapiens, UniProt P08684). In words: Inhibition of CYP3A4 in HBV-infected human HepaRG cells at 5 to 100 uM using luciferin-IPA as substrate treated for 1 hr on day 5 post-infection followed by removal of media and supplemented with fresh media and further incubated for 3 days then followed by treatment for 1 hr on day 8 post-infection followed by removal of media and supplemented with fresh media and further incubated for 3 days and measured on day 11 post-infection by P450-Glo chemiluminescent assay. To be noted: dose 5-100 µM. It counts as ADME, tissue-based.

The target in data set [7] is T2, CYP1A2. Briefly: Inhibition of CYP1A2 in HBV-infected human HepaRG cells at 50 uM using luciferin-1A2 as substrate treated for 1 hr on day 5 post-infection followed by removal of media and supplemented with fresh media and further incubated for 3 days in presence of 10 mM ABT by P450-Glo chemiluminescent assay relative to control. The data set is classed as ADME, tissue-based. Conditions: probe luciferin-1A2, with ABT 10 mM.

Data set [8] addresses T1, CYP2C9. In words: Inhibition of CYP2C9 in HBV-infected human HepaRG cells at 50 uM using luciferin-H as substrate treated for 1 hr on day 5 post-infection followed by removal of media and supplemented with fresh media and further incubated for 3 days then followed by treatment for 1 hr on day 8 post-infection followed by removal of media and supplemented with fresh media and further incubated for 3 days and measured on day 11 post-infection by P450-Glo chemiluminescent assay relative to control. To be noted: probe luciferin-H. The data set is classed as ADME, tissue-based.

Data set [9] deals with T3, CYP3A4. In words: Inhibition of CYP3A4 in HBV-infected human HepaRG cells at 50 uM using luciferin-IPA as substrate treated for 1 hr on day 5 post-infection followed by removal of media and supplemented with fresh media and further incubated for 3 days by P450-Glo chemiluminescent assay relative to control. The data set is classed as ADME, tissue-based. To be noted: probe luciferin-IPA.

Data set [10] relates to Hepatitis B virus. In words: Antiviral activity against Hepatitis B virus infected in human primary hepatocytes assessed as reduction in HbsAg secretion level at 50 uM treated for 1 hr on day 5 post-infection followed by removal of media and supplemented with fresh media and further incubated for 3 days then followed by treatment for 1 hr on day 8 post-infection followed by removal of media and supplemented with fresh media and further incubated for 3 days in presence of 10 mM ABT and measured on day 11 post-infection by chemiluminescence immunostaining assay relative to control. The data set is classed as functional, organism-based. Conditions: Primary hepatocyte.

T3 sequence (P08684 whole entry): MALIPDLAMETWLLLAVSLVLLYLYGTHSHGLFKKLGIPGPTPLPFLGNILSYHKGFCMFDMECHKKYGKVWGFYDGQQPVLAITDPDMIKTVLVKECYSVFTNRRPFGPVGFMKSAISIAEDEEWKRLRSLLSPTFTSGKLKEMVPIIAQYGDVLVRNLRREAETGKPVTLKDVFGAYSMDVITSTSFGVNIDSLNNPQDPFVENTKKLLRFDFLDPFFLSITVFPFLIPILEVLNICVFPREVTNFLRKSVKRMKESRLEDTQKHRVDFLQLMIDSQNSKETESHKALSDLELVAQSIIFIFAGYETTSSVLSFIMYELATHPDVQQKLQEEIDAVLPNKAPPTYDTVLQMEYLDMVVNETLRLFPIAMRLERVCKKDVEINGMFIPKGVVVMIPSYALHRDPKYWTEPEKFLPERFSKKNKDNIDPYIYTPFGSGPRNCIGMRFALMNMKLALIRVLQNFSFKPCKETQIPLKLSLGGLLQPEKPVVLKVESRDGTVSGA
T1 sequence (P11712 whole entry): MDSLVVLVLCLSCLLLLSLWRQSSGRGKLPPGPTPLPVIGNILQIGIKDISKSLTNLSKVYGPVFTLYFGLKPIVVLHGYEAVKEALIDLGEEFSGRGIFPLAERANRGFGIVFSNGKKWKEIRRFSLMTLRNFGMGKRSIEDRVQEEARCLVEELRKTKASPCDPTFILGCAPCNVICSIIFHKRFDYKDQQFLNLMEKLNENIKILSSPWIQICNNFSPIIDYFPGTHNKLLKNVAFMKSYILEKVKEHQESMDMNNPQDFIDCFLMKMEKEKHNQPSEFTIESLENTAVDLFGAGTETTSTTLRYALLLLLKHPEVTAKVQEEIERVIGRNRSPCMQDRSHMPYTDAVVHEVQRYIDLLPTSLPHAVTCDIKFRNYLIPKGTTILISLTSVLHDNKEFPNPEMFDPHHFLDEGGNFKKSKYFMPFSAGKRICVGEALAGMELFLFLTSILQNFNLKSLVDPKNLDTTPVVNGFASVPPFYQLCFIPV
Sequence of Cytochrome P450 3A4 (P08684 whole entry): as the sequence (P08684 whole entry) above

As to `Nn1nnc2ccccc21`, the inhibition (usually the drop in the measured response relative to a control, in per cent) at 1 h, 10000 µM was -9.4% against CYP2C9 [1]; 37.1% against CYP1A2 [2]; 9.6% against CYP3A4 [3]; 83.3% at CYP3A4 [4]; 39.2% at CYP1A2 [6]. Moreover, the Activity entry in the data set on Hepatocyte and in the data set with HepaRG was “Non-Toxic” throughout. For the same compound, the result with Hepatitis B virus [5] was inactive.

As for `CCCC(C(=O)OCCN(CC)CC)(c1ccccc1)c1ccccc1` [PROADIFEN], the “inhibition (INH)” value against Cytochrome P450 3A4 is “Active”. For the same compound, the results for the inhibition at 1 h, 50 µM on CYP1A2 [7], on CYP2C9 [8] and against CYP3A4 [9] were 39.2%, 42.2% and 80.3%, respectively. Besides, the outcome in the data set with Hepatitis B virus [10] was inactive.
